Columns and labels:
Jurkat = experiment: MTS proliferation assay, Jurkat; type: cell-based, human; settings: Homo sapiens, 72 h incubation, read-out: MTS proliferation assay IC 50 Jurkat
Procedure, shortened: (§1)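 Cells seeded 24 h before treatment in RPMI-1640 with 5% or 10% FCS. Compounds added at 10, 3, 1 and 0.3 μM final and incubated 72 h at 37 °C, 7.5% CO2. MTS reagent then added for 3 h, absorbance read at 492 nm.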

Jily = experiment: MTS proliferation assay, Jily; type: cell-based; settings: 72 h incubation, read-out: MTS proliferation assay IC 50 Jily
Procedure, shortened: (§2)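 Cells seeded 24 h before treatment in RPMI-1640 with 5% or 10% FCS, then exposed 72 h at 37 °C, 7.5% CO2, to compound at final 10, 3, 1 and 0.3 μM. Viability by MTS, 3 h further incubation, absorbance 492 nm.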

HT1080 = experiment: MTS proliferation assay, HT1080; type: cell-based, human; settings: Homo sapiens, HT-1080; HT1080, 72 h incubation; read-out: MTS proliferation assay IC 50 HT1080
Procedure, shortened: as §1

HeLa = experiment: MTS proliferation assay, HeLa; type: cell-based, human; settings: Homo sapiens, 72 h incubation, read-out: MTS proliferation assay IC 50 HeLa
Procedure, shortened: as §1

MRC5 = experiment: MTS proliferation assay, MRC5; type: cell-based; settings: Homo sapiens; MRC5, 72 h incubation; read-out: MTS proliferation assay IC 50 MRC5
Procedure, shortened: as §2

[1] = tested on: adherent cells or suspension cells; experiment: Hoechst 33342 nuclear staining (fraction of apoptotic nuclei); type: cell-based; design: key: 0 relating to no activity; 1 relating to weak activity comprising less than 70% of the cells; score 2 relating to strong activity comprising more than 70% of the cells

Row | IC50 (Jurkat) | IC50 (HT1080) | IC50 (HeLa) | SMILES | IC50 (Jily) | IC50 (MRC5) | Hoechst 33342 nuclear staining score ([1]; H460, conc 0.01 μm) | Hoechst 33342 nuclear staining score ([1]; H460, conc 0.1 μm) | Hoechst 33342 nuclear staining score ([1]; H460, conc 1 μm) | Hoechst 33342 nuclear staining score ([1]; HeLa, conc 0.01 μm) | Hoechst 33342 nuclear staining score ([1]; HeLa, conc 0.1 μm) | Hoechst 33342 nuclear staining score ([1]; HeLa, conc 1 μm) | Hoechst 33342 nuclear staining score ([1]; Jily, conc 0.01 μm) | Hoechst 33342 nuclear staining score ([1]; Jily, conc 0.1 μm) | Hoechst 33342 nuclear staining score ([1]; Jily, conc 1 μm) | Hoechst 33342 nuclear staining score ([1]; Jurkat, conc 0.01 μm) | Hoechst 33342 nuclear staining score ([1]; Jurkat, conc 0.1 μm) | Hoechst 33342 nuclear staining score ([1]; Jurkat, conc 1 μm) | Hoechst 33342 nuclear staining score ([1]; MRC5, conc 0.01 μm) | Hoechst 33342 nuclear staining score ([1]; MRC5, conc 0.1 μm) | Hoechst 33342 nuclear staining score ([1]; MRC5, conc 1 μm) | further results
1 | 10 to 100 nM | 100 to 1000 nM | 100 to 1000 nM | CN(C)c1nonc1-c1nc2ccccc2n1CC(=O)c1ccc(Cl)cc1 [Example 4, Dimethyl-{4-[1-(4-chlorophenacyl)-1H-benzimidazol-2-yl]-furazan-3-yl}-amine] | 100 to 1000 nM | 100 to 1000 nM | 0 | 0 | 1 (1 relating to weak activity comprising less than 70% of the cells) | 0 | 0 | 2 (score 2 relating to strong activity comprising more than 70% of the cells) | 0 | 0 | 2 (score 2 relating to strong activity comprising more than 70% of the cells) | 0 | 0 | 2 (score 2 relating to strong activity comprising more than 70% of the cells) | 0 | 0 | 2 (score 2 relating to strong activity comprising more than 70% of the cells) | Hoechst 33342 nuclear staining score ([1]; PBLs, conc 0.01 μm): 0; Hoechst 33342 nuclear staining score ([1]; PBLs, conc 0.1 μm): 0; Hoechst 33342 nuclear staining score ([1]; PBLs, conc 1 μm): 0
2 | < 10 nM | 10 to 100 nM | 10 to 100 nM | N#CCCNc1nonc1-c1nc2ccccc2n1CC(=O)c1ccc(Cl)cc1 [Example 6, 4-[1-(4-Chlorophenacyl)-1H-benzimidazol-2-yl]-furazan-3-yl-N-(2-cyanoethyl)-amine] | 10 to 100 nM | 100 to 1000 nM | 0 | 2 (score 2 relating to strong activity comprising more than 70% of the cells) | 2 (score 2 relating to strong activity comprising more than 70% of the cells) | 0 | 2 (score 2 relating to strong activity comprising more than 70% of the cells) | 2 (score 2 relating to strong activity comprising more than 70% of the cells) | 2 (score 2 relating to strong activity comprising more than 70% of the cells) | 2 (score 2 relating to strong activity comprising more than 70% of the cells) | 2 (score 2 relating to strong activity comprising more than 70% of the cells) | 2 (score 2 relating to strong activity comprising more than 70% of the cells) | 2 (score 2 relating to strong activity comprising more than 70% of the cells) | 2 (score 2 relating to strong activity comprising more than 70% of the cells) | 2 (score 2 relating to strong activity comprising more than 70% of the cells) | 2 (score 2 relating to strong activity comprising more than 70% of the cells) | 2 (score 2 relating to strong activity comprising more than 70% of the cells) | Hoechst 33342 nuclear staining score ([1]; PBLs, conc 0.01 μm): 0; Hoechst 33342 nuclear staining score ([1]; PBLs, conc 0.1 μm): 0; Hoechst 33342 nuclear staining score ([1]; PBLs, conc 1 μm): 0
3 | 100 to 1000 nM | 100 to 1000 nM | 100 to 1000 nM | Nc1nonc1-c1nc2ccccc2n1COc1ccccc1 [Example 7, 4-(1-Phenoxymethyl-1H-benzimidazol-2-yl)-furazan-3-ylamine] | 100 to 1000 nM | 100 to 1000 nM | 0 | 0 | 2 (score 2 relating to strong activity comprising more than 70% of the cells) | 0 | 0 | 2 (score 2 relating to strong activity comprising more than 70% of the cells) | 0 | 0 | 2 (score 2 relating to strong activity comprising more than 70% of the cells) | 0 | 0 | 2 (score 2 relating to strong activity comprising more than 70% of the cells) | 0 | 0 | 0 | Hoechst 33342 nuclear staining score ([1]; PBLs, conc 0.01 μm): 0; Hoechst 33342 nuclear staining score ([1]; PBLs, conc 0.1 μm): 0; Hoechst 33342 nuclear staining score ([1]; PBLs, conc 1 μm): 0
4 | 100 to 1000 nM | 100 to 1000 nM | 100 to 1000 nM | Nc1nonc1-c1nc2ccccc2n1COc1ccc(F)cc1 [Example 8, 4-[1-(4-Fluorophenoxymethyl)-1H-benzimidazol-2-yl]-furazan-3-ylamine] | 100 to 1000 nM | 100 to 1000 nM | 0 | 0 | 0 | 0 | 0 | 1 (1 relating to weak activity comprising less than 70% of the cells) | 0 | 0 | 0 | 0 | 0 | 1 (1 relating to weak activity comprising less than 70% of the cells) | 0 | 0 | 0 | Hoechst 33342 nuclear staining score ([1]; PBLs, conc 0.01 μm): 0; Hoechst 33342 nuclear staining score ([1]; PBLs, conc 0.1 μm): 0; Hoechst 33342 nuclear staining score ([1]; PBLs, conc 1 μm): 0
5 | 100 to 1000 nM | 100 to 1000 nM | 100 to 1000 nM | COC(=O)CCNc1nonc1-c1nc2ccccc2n1CC(=O)c1ccc(Cl)cc1 [Example 9, 4-[1-(4-Chlorophenacyl)-1H-benzimidazol-2-yl]-furazan-3-yl-N-(2-methoxycarbonylethyl)-amine] | 100 to 1000 nM | 100 to 1000 nM | 0 | 0 | 0 | 0 | 0 | 2 (score 2 relating to strong activity comprising more than 70% of the cells) | 0 | 0 | 2 (score 2 relating to strong activity comprising more than 70% of the cells) | 0 | 0 | 2 (score 2 relating to strong activity comprising more than 70% of the cells) | 0 | 0 | 2 (score 2 relating to strong activity comprising more than 70% of the cells) | Hoechst 33342 nuclear staining score ([1]; PBLs, conc 0.01 μm): 0; Hoechst 33342 nuclear staining score ([1]; PBLs, conc 0.1 μm): 0; Hoechst 33342 nuclear staining score ([1]; PBLs, conc 1 μm): 2 (score 2 relating to strong activity comprising more than 70% of the cells)
6 | 100 to 1000 nM | > 1000 nM | > 1000 nM | Nc1nonc1-c1nc2ccccc2n1CC(=O)/C=C/c1ccccc1 [Example 12, E-1-[2-(4-Aminofurazan-3-yl)-benzimidazol-1-yl]-4-phenyl-but-3-en-2-one] | 100 to 1000 nM | > 1000 nM | 0 | 0 | 0 | 0 | 0 | 0 | 0 | 0 | 2 (score 2 relating to strong activity comprising more than 70% of the cells) | 0 | 0 | 2 (score 2 relating to strong activity comprising more than 70% of the cells) | 0 | 0 | 0 | Hoechst 33342 nuclear staining score ([1]; PBLs, conc 0.01 μm): 0; Hoechst 33342 nuclear staining score ([1]; PBLs, conc 0.1 μm): 0; Hoechst 33342 nuclear staining score ([1]; PBLs, conc 1 μm): 0
